Results reported in patent US20230226056A1, “[…] FOR PREVENTING OR TREATING SARS-COV-2 INFECTIONS” (priority 2020, published 2023).
Entries after “also recorded” stand apart in the source; their conditions may differ.

Assays:
[1] = target: T1, SARS-CoV-2 Spike S1 protein binding to ACE2-expressing A549 cells (Severe acute respiratory syndrome coronavirus 2, UniProt P0DTC2); assay type: cell-based
T1 construct: the HIS-tagged SARS-Cov2-S1 protein is added to each tube; ACE2: endogenous in A549 cells (ATCC)

[2] = Osmolarity of ectoine solution; assay type: physicochemical
Description: An isotonic NaCl solution of 0.9% has an osmolar activity of 286 mOsmol/kg H2O. A 2% ectoine solution has an osmolarity of 147 mOsmol/kg H2O. An isotonic ectoine solution thus has a concentration of 3.89%.

[3] = Maximum solubility of ectoine; assay type: physicochemical
Description: For a maximally saturated solute solution, concentrations that are just below the solubility limit of the respective solute are preferred. Such a highly concentrated solute solution can be used as a starting solution to prepare the solution required on site. In this way, individual solutions can be diluted depending on the administration required, the patient's condition (existing conditions, age, etc.) and/or desired therapy. This is especially beneficial when not differently concentrated solutions can be stored.

[4] = Oral toxicity; assay type: in vivo
[5] = Plasma concentration after oral ectoine in rats; assay type: in vivo; conditions: 1000 mg/kg

Row | Structure (SMILES) | Median (background-subtracted fluorescence, Mann Whitney test) [1] | effect on Cov2 S1 protein binding to A549 cells [1] | effect on the binding between Cov2 S1 and the A549 cells [1] | inhibition of the binding of the Cov2 S1 protein to A549 cells [1] | inhibitory effect on Cov2 S1 binding [1] | bound viral Cov2 S1 protein on the cell surface [1] | fluorescence of the Cov2 S1 protein bound to A549 cells [1] | osmolarity ([2]; 2% ectoine solution) | concentration of an isotonic ectoine solution ([2]; relative to isotonic 0.9% NaCl, 286 mOsmol/kg H2O) | maximum solubility ([3]; 25° C.) | maximum solubility ([3]; 40° C.) | NOAL [4] | plasma concentration [5]
1 | CC(=O)NCC[C@H](N)C(=O)O [NADA, Nγ-Acetyl-L-2,4-diaminobutyric acid, reference compound] | 1.820, n = 4 | no effect | No effect | no inhibition; also recorded: little inhibition; also recorded: no significant effect | comparable to untreated cells |  |  |  |  |  |  |  | 
2 | CC1=N[C@H](C(=O)O)CCN1 [ectoine, (4S)-2-Methyl-1,4,5,6-tetrahydropyrimidine-4-carbon acid] | 0.3050, n = 4 |  |  | complete inhibition; also recorded: positive effect | significant | less or no bound viral Cov2 S1 protein | lower fluorescence | 147 mOsmol/kg H2O | 3.89% | about 550 g/L | about 620 g/L | 2000 mg/kg body weight/day | 99 µg/mL
